Tested on: patients with cGVHD
Experiment: Example 1 phase IIa dose-finding study: cGVHD response per 2014 NIH Consensus Criteria (ORR, BOR, DOR, TTR, organ response)
Assay type: in vivo, human
Settings: for DOR Median (95% CI): responder population
Protocol: Eligible patients were allogeneic bone marrow transplant or allogeneic hematopoietic cell transplant (alloHCT) recipients of age ≥18 years with persistent cGVHD manifestations after having received one to three prior systemic lines of therapy and who were receiving corticosteroid treatment with or without a calcineurin inhibitor and/or concurrent extracorporeal photopheresis.
(FIG. 1) Before enrollment of the subsequent cohort, safety data in each previous cohort were analyzed after eight patients reached two months of treatment to assure that there was no safety signal. […] No safety concerns were identified, allowing for planned dose escalation.
Progression was defined per the 2014 NIH cGVHD Consensus Criteria. Long-term follow-up was conducted every 8 weeks until study closeout. […] Screening was conducted within 28 days of the first study dose. Response was initially assessed after two cycles; however, this was amended to evaluate response on day 1 of each cycle, starting at cycle 2 day 1.
All responses were assessed by the investigators.
Percentage of Participants With Overall Response (OR): OR was defined as the percentage of participants with complete response (CR) or partial response (PR). The OR determination of chronic graft versus host disease (cGVHD) was based on cGVHD response assessment performed by clinicians as per the 2014 National Institutes of Health (NIH) Consensus Development Project for Clinical Trials in cGVHD criteria. CR was defined as the resolution of all manifestations in each organ or site. PR was defined as the improvement in at least 1 organ or site without progression in any other organ or site; and cGVHD progression was defined as the clinically meaningful worsening in 1 or more organs regardless of improvement in other organs.
Duration of Response (DOR). The DOR was defined as the time (in weeks) from first documentation of response to the time of first documentation of deterioration from best response (e.g., CR to PR, or PR to […]). LOR included the response status of unchanged (LOR-U), mixed (LOR-M), or progression (LOR-P). […] Kaplan-Meier was used for the analysis.
Best Overall Response (BOR). BOR was defined as the participants with either a CR or PR or lack of response (LOR), where LOR included the response status of unchanged (LOR-U), mixed (LOR-M), or progression (LOR-P). BOR was assessed per the 2014 NIH Consensus Development Project for Clinical Trials in cGVHD criteria. […] Analysis was performed on mITT population.
Best Response in Each Individual Organ. Best response was defined as the percentage of participants with CR or PR. Response was assessed per the 2014 NIH Consensus Development Project for Clinical Trials in cGVHD criteria; CR was defined as the resolution of all manifestations in each organ or site; PR was defined as the improvement in at least 1 organ or site without progression in any other organ or site. Organ response assessment was performed on 9 individual organs: skin, eyes, mouth, esophagus, upper GI, lower GI, liver, lungs, and joints and fascia. […] Analysis was performed on mITT population. Here, ‘number analyzed’=participants with available data for each specified category.

[1] = Cohort 1 200 mg QD, 17 analyzed
[2] = Cohort 2 200 mg BID, 16 analyzed
[3] = Cohort 3 400 mg QD, 21 analyzed

Q: Which results are given for `CC(C)NC(=O)COc1cccc(-c2nc(Nc3ccc4[nH]ncc4c3)c3ccccc3n2)c1` [Belumosudil, 2-{3-[4-(1H-indazol-5-ylamino)-2-quinazolinyl]phenoxy}-N-(propan-2-yl) acetamide]?
A: Best response (CR or PR) in skin, percentage of participants (Cohort 1 200 mg QD): (23%); Best response in esophagus, percentage of participants (Cohort 1 200 mg QD): (50%); Best response in joints and fascia, percentage of participants (Cohort 1 200 mg QD): (55%); ORR, % (95% CI) (Cohort 1 200 mg QD): 65%; ORR, refractory to previous LOT (Cohort 1 200 mg QD): 7/11 (64, 31 to %; ORR, severe cGVHD (Cohort 1 200 mg QD): 8/12 (67, 35 to %; ORR, ≤2 prior LOTs subgroup (Cohort 1 200 mg QD): 10/15 (67, 38 to %; ORR, ≤4 organs involved (Cohort 1 200 mg QD): 4/8 (50, 16 to %; BOR: CR [1]: 0 participants; BOR: LOR-P [1]: 2 participants; BOR: LOR-U [1]: 2 participants; BOR: PR [1]: 11 participants; ORR, % (95% CI) (Cohort 1 200 mg QD, listed as KD025): 65 (38 to 86) %; DOR Median (95% CI) (Cohort 1 200 mg QD): 40 (8-na* %) weeks; Best response (CR or PR) in skin, percentage of participants (Cohort 2 200 mg BID): (17%); Best response in liver, percentage of participants (Cohort 2 200 mg BID): (50%); ORR, % (95% CI) (Cohort 2 200 mg BID): 69%; ORR, refractory to previous LOT (Cohort 2 200 mg BID): 6/9 (67, 30 to %; ORR, severe cGVHD (Cohort 2 200 mg BID): 9/14 (64, 35 to %; ORR, ≤2 prior LOTs subgroup (Cohort 2 200 mg BID): 5/8 (63, 25 to %; ORR, ≤4 organs involved (Cohort 2 200 mg BID): 8/10 (80, 44 to %; BOR: CR [2]: 0 participants; BOR: LOR-P [2]: 1 participants; BOR: LOR-U [2]: 3 participants; BOR: PR [2]: 11 participants; ORR, % (95% CI) (Cohort 2 200 mg BID, listed as KD025): 69 (41 to 89) %; DOR Median (95% CI) (Cohort 2 200 mg BID): 11 (2-35%) weeks; ORR, % (95% CI) (Cohort 3 400 mg QD): 57%; ORR, refractory to previous LOT (Cohort 3 400 mg QD): 9/15 (60, 32 to %; ORR, severe cGVHD (Cohort 3 400 mg QD): 8/16 (50, 25 to %; ORR, ≤2 prior LOTs subgroup (Cohort 3 400 mg QD): 8/12 (67, 35 to %; ORR, ≤4 organs involved (Cohort 3 400 mg QD): 7/9 (78, 40 to %; BOR: CR [3]: 0 participants; BOR: LOR-M [3]: 0 participants; BOR: LOR-P [3]: 1 participants; BOR: LOR-U [3]: 4 participants; BOR: PR [3]: 12 participants; ORR, refractory to previous LOT (Total): 63%; ORR, severe cGVHD (Total): 60%; ORR, ≤2 prior LOTs subgroup (Total): 66%; ORR, ≤4 organs involved (Total): 70%; ORR, % (95% CI) (Total N=54, listed as KD025): 65 (51 to 77) %; ORR, refractory to previous LOT (Total, listed as KD025): 22/35 (63, 45 to %; ORR, severe cGVHD (Total, listed as KD025): 25/42 (60, 43 to %; ORR, ≤2 prior LOTs subgroup (Total, listed as KD025): 23/35 (66, 48 to %; ORR, ≤4 organs involved (Total, listed as KD025): 19/27 (70, 50 to %; ORR among patients with nonsevere cGVHD (pooled cohorts): 83%
